In data set [1] the target is T1, DNA dC->dU-editing enzyme APOBEC-3A (Homo sapiens, UniProt P31941). Put plainly: Inhibition of recombinant APOBEC3A (unknown origin) expressed in HEK293 cells assessed as reduction in cytosine deaminase activity using 5'-6-FAM and 3'-TAMRA quench molecule tagged cytosine-containing single-stranded DNA substrate incubated for 2 hrs by fluorescence-based assay. Format: cell-based.

In data set [2] the target is T2, DNA dC->dU-editing enzyme APOBEC-3G (Homo sapiens, UniProt Q9HC16). As to the kind of experiment: Inhibition of recombinant APOBEC3G (unknown origin) expressed in HEK293 cells assessed as reduction in cytosine deaminase activity using 5'-6-FAM and 3'-TAMRA quench molecule tagged cytosine-containing single-stranded DNA substrate incubated for 2 hrs by fluorescence-based assay. Format: cell-based.

Data set [3] in a line: Inhibition of recombinant APOBEC3G 2K3A mutant (unknown origin) expressed in HEK293 cells assessed as reduction in cytosine deaminase activity using 5'-6-FAM and 3'-TAMRA quench molecule tagged cytosine-containing single-stranded DNA substrate incubated for 2 hrs by fluorescence-based assay. Format: cell-based, Homo sapiens.
Data set [4] deals with DNA dC->dU-editing enzyme APOBEC-3G (Homo sapiens, UniProt Q9HC16, C321A). Put plainly: Inhibition of recombinant APOBEC3G C321A mutant (unknown origin) expressed in HEK293 cells assessed as reduction in cytosine deaminase activity using 5'-6-FAM and 3'-TAMRA quench molecule tagged cytosine-containing single-stranded DNA substrate incubated for 2 hrs by fluorescence-based assay. The class given is cell-based.

For data set [5], the target named is DNA dC->dU-editing enzyme APOBEC-3B (Homo sapiens, UniProt Q9UH17). Put plainly: Inhibition of recombinant APOBEC3B (unknown origin) expressed in HEK293 cells assessed as reduction in cytosine deaminase activity using 5'-6-FAM and 3'-TAMRA quench molecule tagged cytosine-containing single-stranded DNA substrate incubated for 2 hrs by fluorescence-based assay. The class given is cell-based.

Data set [6] in a line: Toxicity in HEK293T cells assessed as cell viability at 50 uM incubated for 5 days relative to control. The class given is cell-based, HEK-293T. Conditions: human, read-out: Activity.
A short description of data set [7]: Toxicity in human HeLa cells assessed as cell viability at 50 uM incubated for 5 days relative to control. Format: cell-based. The settings on record: read-out: Activity.
Data set [8] addresses T2, DNA dC->dU-editing enzyme APOBEC-3G. Put plainly: Inhibition of recombinant APOBEC3G (unknown origin) expressed in HEK293 cells assessed as reduction in cytosine deaminase activity at 200 uM using 5'-6-FAM and 3'-TAMRA quench molecule tagged cytosine-containing single-stranded DNA substrate incubated for 2 hrs and measured on day 0 by fluorescence-based assay. The class given is cell-based.

For data set [9] the target is unchanged. Put plainly: Inhibition of recombinant APOBEC3G (unknown origin) expressed in HEK293 cells assessed as reduction in cytosine deaminase activity using 5'-6-FAM and 3'-TAMRA quench molecule tagged cytosine-containing single-stranded DNA substrate incubated for 2 hrs and measured on at days 3, 21, 38, and 72 by fluorescence-based assay. The class given is cell-based.

Data set [10] is described as follows: Stability in DMSO assessed as drug degradation incubated for 21 days by HPLC analysis. Format: physicochemical. Conditions: 504 h.
The nature of data set [11]: Stability in saturated N2 atmosphere assessed as drug degradation by NMR and LC-MS/MS analysis. Format: physicochemical.
A short description of data set [12]: Stability in DMSO assessed as light dependent drug degradation by HPLC analysis. Format: physicochemical.
Data set [13] in a line: Stability in DMSO assessed as drug degradation at -20 to 37 degC by HPLC analysis. Format: physicochemical.
A short description of data set [14]: Drug metabolism in DMSO at 10 mM shaken gently at 25 degC open to atmosphere condition assessed as 2-oxo-1,2-dihydroquinoline-4-carboxylic acid formation after 38 days by HPLC analysis.
Data set [15] in a line: Drug metabolism in DMSO at 10 mM shaken gently at 25 degC exposed to visible light (300 W) in oxygen-saturated atmosphere assessed as 2-oxo-1,2-dihydroquinoline-4-carboxylic acid formation after 38 days by HPLC analysis.
Data set [16] can be described thus: Stability in DMSO at 10 mM shaken gently at 25 degC exposed toN2 atmosphere assessed as compound degradation measured over 9 hrs by HPLC analysis. The class given is physicochemical. Conditions: 10000 µM.
The target of data set [17] is T1, DNA dC->dU-editing enzyme APOBEC-3A. The settings on record: HEK293, 200 uM.
Description: Inhibition of recombinant APOBEC3A (unknown origin) expressed in HEK293 cells assessed as reduction in cytosine deaminase activity at 200 uM using 5'-6-FAM and 3'-TAMRA quench molecule tagged cytosine-containing single-stranded DNA substrate incubated for 2 hrs and measured on day 0 by fluorescence-based assay
Data set [18] has the same target. Put plainly: Inhibition of recombinant APOBEC3A (unknown origin) expressed in HEK293 cells assessed as reduction in cytosine deaminase activity at 200 uM using 5'-6-FAM and 3'-TAMRA quench molecule tagged cytosine-containing single-stranded DNA substrate incubated for 2 hrs by fluorescence-based assay relative to control. The class given is cell-based.

Structures are written as SMILES. Activity calls are given as the source filed them. The rule behind the calls is not given here.

T2 sequence (Q9HC16 whole entry): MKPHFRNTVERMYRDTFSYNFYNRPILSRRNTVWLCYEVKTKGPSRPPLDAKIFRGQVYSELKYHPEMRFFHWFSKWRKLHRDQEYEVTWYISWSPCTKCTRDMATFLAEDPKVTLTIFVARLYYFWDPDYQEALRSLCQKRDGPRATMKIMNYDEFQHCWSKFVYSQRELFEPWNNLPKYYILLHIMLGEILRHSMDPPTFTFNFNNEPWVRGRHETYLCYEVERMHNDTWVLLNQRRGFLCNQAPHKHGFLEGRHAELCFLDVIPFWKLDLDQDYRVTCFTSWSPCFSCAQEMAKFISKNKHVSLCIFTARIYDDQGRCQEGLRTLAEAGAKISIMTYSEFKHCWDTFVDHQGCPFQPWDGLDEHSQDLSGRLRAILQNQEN
T1 sequence (P31941 whole entry): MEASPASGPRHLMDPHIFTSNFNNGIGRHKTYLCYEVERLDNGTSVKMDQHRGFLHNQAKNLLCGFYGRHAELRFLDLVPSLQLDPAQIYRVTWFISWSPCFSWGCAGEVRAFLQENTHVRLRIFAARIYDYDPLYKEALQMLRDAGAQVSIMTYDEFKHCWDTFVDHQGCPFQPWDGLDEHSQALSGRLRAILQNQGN
DNA dC->dU-editing enzyme APOBEC-3B, sequence (Q9UH17 whole entry): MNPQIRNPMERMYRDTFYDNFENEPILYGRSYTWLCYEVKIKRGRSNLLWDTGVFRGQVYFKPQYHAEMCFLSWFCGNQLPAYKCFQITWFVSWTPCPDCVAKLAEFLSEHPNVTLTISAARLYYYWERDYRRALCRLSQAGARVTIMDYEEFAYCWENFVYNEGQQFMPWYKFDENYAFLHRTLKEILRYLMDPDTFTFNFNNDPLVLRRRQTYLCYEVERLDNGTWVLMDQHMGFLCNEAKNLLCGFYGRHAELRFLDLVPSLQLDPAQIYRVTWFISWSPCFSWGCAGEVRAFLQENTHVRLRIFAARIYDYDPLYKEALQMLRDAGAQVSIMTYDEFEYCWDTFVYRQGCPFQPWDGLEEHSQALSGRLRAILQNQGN
DNA dC->dU-editing enzyme APOBEC-3G (Homo sapiens, UniProt Q9HC16, C321A), sequence (Q9HC16 whole entry C321A): as the sequence (Q9HC16 whole entry) above, with C321A counted along it

Consider `O=C(Nc1nnc(-c2ccncc2)s1)c1cc(Cl)nc2ccccc12`, for which the concentration for half-maximal inhibition (IC50) is > 100 µM in data set [1]; 22 µM in data set [2]; > 100 µM in data set [3]; > 100 µM in data set [4]; > 100 µM in [5].
As to `O=C(Nc1nnc(-c2ccncc2)s1)c1cc(=O)[nH]c2ccc([N+](=O)[O-])cc12`, the half-maximal inhibitory concentration (IC50) was > 100 µM in data set [1]; 12 µM in data set [2]; 74 µM in data set [3]; 23 µM in data set [4]; 31 µM in [5].
Regarding `O=C(Nc1nnc(-c2ccncc2)s1)c1ccc(O)nc1`, the 50% inhibitory concentration (IC50) in data set [1] turned out to be 87 µM; in data set [2], 21 µM; in data set [4], 31 µM; in [5] it was 30 µM.
Take `Cc1ccc(-c2cc(C(=O)Nc3nnc(-c4ccncc4)s3)c3ccccc3n2)o1`: the viability at 120 h, 50 µM in data set [6] and in [7] was > 85% each time. The inhibition entry in [8], in [9] and in data set [17] was “inactive” each time. The Stability entry in data set [10] is “Unstable”; in [11], “Stable”; in data set [12] it was “Unstable”; in [13], “Unstable”; in [16], “Stable”. Besides, the Drug metabolism result in data set [14] and in data set [15] was “Metabolite detected” throughout.
In the case of `O=C(Nc1nnc(-c2ccncc2)s1)c1cc(=O)[nH]c2ccccc12`, the IC50 in [1] was > 100 µM; in data set [2], 90 µM; in [3], > 100 µM; in data set [4] it was > 100 µM; in data set [5], > 100 µM. In addition, in data set [18], the inhibition was determined as 50%.
As to `O=C(Nc1nnc(-c2ccncc2)s1)c1cc(Br)nc2ccccc12`, the IC50 came to 75 µM in data set [1], 32 µM in data set [2], 52 µM in data set [4] and 65 µM in [5].
As for `O=C(O)c1cccc2c1C(=O)N(c1ccccc1)C2`, in data set [1], the 50% inhibitory concentration (IC50) came to 111 µM.
With `O=C(Nc1nnc(-c2ccncc2)s1)c1ccnc(O)c1`, the IC50 in data set [1] was > 100 µM; in [2], 60 µM; in data set [3] it was > 100 µM.
In the case of `COc1ccc2[nH]c(=O)cc(C(=O)Nc3nnc(-c4ccncc4)s3)c2c1`, the IC50 was > 100 µM in data set [1]; 17 µM in data set [2]; 24 µM in [3]; 20 µM in data set [4]; 37 µM in [5].
For the compound `N#Cc1ncnn1C(=O)c1cc(=O)[nH]c2ccccc12`, the half-maximal inhibitory concentration (IC50) was > 100 µM in data set [1]; 15 µM in data set [2]; > 100 µM in data set [3]; > 100 µM in data set [4]; > 100 µM in data set [5].
For `Nc1ccc2[nH]c(=O)cc(C(=O)Nc3nnc(-c4ccncc4)s3)c2c1`, the IC50 in [1] was > 100 µM; in [2] it was 18 µM; in data set [3], 55 µM; in data set [4], 30 µM; in data set [5], 31 µM.

One may read the IC50 as the concentration needed to halve the response being measured. For orientation: inhibition means the percentage by which the read-out fell short of the control.

(Values after ChEMBL document CHEMBL4419174, “Small molecule inhibitors of apobec3g and apobec3b” (2015).)
